Earlier results as cited in patent publication US12404524B2, “Expression vector” (priority 2019, dated 2025).

Test system: common Streptomyces expression strains
Details: inducers of Potr and PnitA in single-gene expression experiments

| Structure (SMILES) | effect on physiology or growth rate |
| --- | --- |
| CN(C)[C@@H]1C(O)=C(C(N)=O)C(=O)[C@@]2(O)C(O)=C3C(=O)c4c(O)cccc4[C@@](C)(O)[C@H]3[C@H](O)[C@@H]12 [oxytetracycline] | no effect |
| O=C1CCCCCN1 [ε-caprolactam] | no effect |
